{
  "source": "patent US9802899B2",
  "about": "“Heterocyclic compounds as pesticides” (BAYER CROPSCIENCE AG, priority 2012, dated 2017)",
  "data": [
    {"experiment": "Determination of the log P values by HPLC (formic acid method)", "assay_type": "physicochemical", "details": "reversed-phase column (C 18), acidic range (pH 3.4), 55° C.", "procedure": "1) Description of Method for Determination of the Log P Values (Formic Acid Method)\nEluents for determination in the acidic range (pH 3.4):\nEluent A: acetonitrile+1 ml of formic acid/liter. Eluent B: water+0.9 ml of formic acid/liter.\nThe lambda max values were determined in the maxima of the chromatographic signals using the UV spectra from 200 nm to 400 nm.", "values": [
      {"smiles": "O=C(Nc1ccn(-c2ccccc2[N+](=O)[O-])n1)c1c(F)cccc1F", "note": "[Compound I-1-417]", "log P": 2.34},
      {"smiles": "O=C(Nc1ccn(-c2ccccc2[N+](=O)[O-])n1)c1ccccc1Br", "note": "[Compound I-1-418]", "log P": 2.50},
      {"smiles": "O=C(Nc1ccn(-c2ccccc2[N+](=O)[O-])n1)c1ccccc1I", "note": "[Compound I-1-419]", "log P": 2.61},
      {"smiles": "O=C(Nc1ccn(-c2ccccn2)n1)c1ccccc1Cl", "note": "[Compound I-1-420]", "log P": 2.33},
      {"smiles": "O=C(Nc1ccn(-c2ncc(C(F)(F)F)cc2Cl)n1)c1ccccc1I", "note": "[Compound I-1-421]", "log P": 3.43},
      {"smiles": "O=C(Nc1ccn(-c2ncccc2C(F)(F)F)n1)c1ccccc1C(F)(F)F", "note": "[Compound I-1-422]", "log P": 2.72},
      {"smiles": "O=C(Nc1ccn(-c2ncccc2C(F)(F)F)n1)c1c(F)cccc1F", "note": "[Compound I-1-423]", "log P": 2.46},
      {"smiles": "O=C(Nc1ccn(-c2ncccc2C(F)(F)F)n1)c1ccccc1Br", "note": "[Compound I-1-424]", "log P": 2.61},
      {"smiles": "O=C(Nc1ccn(-c2ncccc2C(F)(F)F)n1)c1ccccc1Cl", "note": "[Compound I-1-425]", "log P": 2.57},
      {"smiles": "O=C(Nc1ccn(-c2ncccc2C(F)(F)F)n1)c1cccnc1C(F)(F)F", "note": "[Compound I-1-426]", "log P": 2.69},
      {"smiles": "O=C(Nc1ccn(-c2ncccc2C(F)(F)F)n1)c1ccccc1I", "note": "[Compound I-1-427]", "log P": 2.72},
      {"smiles": "O=C(Nc1ccn(-c2ncc(Cl)cc2Cl)n1)c1c(F)cccc1F", "note": "[Compound I-1-429]", "log P": 2.77},
      {"smiles": "O=C(Nc1ccn(-c2ncc(Cl)cc2Cl)n1)c1ccccc1Br", "note": "[Compound I-1-430]", "log P": 2.95},
      {"smiles": "O=C(Nc1ccn(-c2ncc(Cl)cc2Cl)n1)c1cccnc1Br", "note": "[Compound I-1-431]", "log P": 2.29},
      {"smiles": "O=C(Nc1ccn(-c2ncc(Cl)cc2Cl)n1)c1ccccc1Cl", "note": "[Compound I-1-432]", "log P": 2.91},
      {"smiles": "O=C(Nc1ccn(-c2ncc(Cl)cc2Cl)n1)c1ccccc1I", "note": "[Compound I-1-433]", "log P": 3.06},
      {"smiles": "O=C(Nc1ccn(-c2ncc(Cl)cc2Cl)n1)c1cccc(F)c1C(F)(F)F", "note": "[Compound I-1-434]", "log P": 2.61},
      {"smiles": "Cn1cc(C(=O)Nc2ccn(-c3ncc(Cl)cc3Cl)n2)c(I)n1", "note": "[Compound I-1-435]", "log P": 1.83},
      {"smiles": "O=C(Nc1ccn(-c2ncc(Cl)cc2Cl)n1)c1ccc(F)cc1C(F)(F)F", "note": "[Compound I-1-436]", "log P": 2.61},
      {"smiles": "O=C(Nc1ccn(-c2ncc(Cl)cc2Cl)n1)c1cc(Cl)ccc1C(F)(F)F", "note": "[Compound I-1-437]", "log P": 2.93},
      {"smiles": "Cc1nc(-n2ccc(NC(=O)c3ccccc3C(F)(F)F)n2)c(F)cc1F", "note": "[Compound I-1-439]", "log P": 2.85},
      {"smiles": "Cc1nc(-n2ccc(NC(=O)c3cccnc3C(F)(F)F)n2)c(F)cc1F", "note": "[Compound I-1-440]", "log P": 2.38},
      {"smiles": "Cc1nc(-n2ccc(NC(=O)c3c(F)cccc3F)n2)c(F)cc1F", "note": "[Compound I-1-441]", "log P": 2.56},
      {"smiles": "Cc1nc(-n2ccc(NC(=O)c3ccccc3Br)n2)c(F)cc1F", "note": "[Compound I-1-442]", "log P": 2.71},
      {"smiles": "O=C(Nc1ccn(-c2ncc(F)cc2F)n1)c1ccnn1C(F)F", "note": "[Compound I-1-443]", "log P": 2.16},
      {"smiles": "Cc1nn(C(F)F)c(C(=O)Nc2ccn(-c3ncc(F)cc3F)n2)c1F", "note": "[Compound I-1-444]", "log P": 2.65},
      {"smiles": "Cc1nn(C)c(C)c1C(=O)Nc1ccn(-c2ncc(F)cc2F)n1", "note": "[Compound I-1-445]", "log P": 1.60},
      {"smiles": "Cc1nn(C)cc1C(=O)Nc1ccn(-c2ncc(F)cc2F)n1", "note": "[Compound I-1-446]", "log P": 1.54},
      {"smiles": "Cc1nn(C)c(C(=O)Nc2ccn(-c3ncc(F)cc3F)n2)c1[N+](=O)[O-]", "note": "[Compound I-1-447]", "log P": 2.03},
      {"smiles": "Cc1c([N+](=O)[O-])c(C(=O)Nc2ccn(-c3ncc(F)cc3F)n2)nn1C", "note": "[Compound I-1-448]", "log P": 1.83},
      {"smiles": "Cn1ncnc1C(=O)Nc1ccn(-c2ncc(F)cc2F)n1", "note": "[Compound I-1-449]", "log P": 1.67},
      {"smiles": "Cn1nc(C(F)(F)C(F)(F)F)c(C(F)(F)F)c1C(=O)Nc1ccn(-c2ncc(F)cc2F)n1", "note": "[Compound I-1-450]", "log P": 3.65},
      {"smiles": "Cn1nc(C(F)(F)F)c(C(=O)Nc2ccn(-c3ncc(F)cc3F)n2)c1C(F)(F)F", "note": "[Compound I-1-451]", "log P": 2.79},
      {"smiles": "Cn1ccc([N+](=O)[O-])c1C(=O)Nc1ccn(-c2ncc(F)cc2F)n1", "note": "[Compound I-1-452]", "log P": 2.27},
      {"smiles": "Cn1cc([N+](=O)[O-])c(C(=O)Nc2ccn(-c3ncc(F)cc3F)n2)n1", "note": "[Compound I-1-453]", "log P": 1.69},
      {"smiles": "Cn1cnc(C(=O)Nc2ccn(-c3ncc(F)cc3F)n2)c1[N+](=O)[O-]", "note": "[Compound I-1-454]", "log P": 1.58},
      {"smiles": "CCC(C)n1ncc(Cl)c1C(=O)Nc1ccn(-c2ncc(F)cc2F)n1", "note": "(stereo not drawn) [Compound I-1-455]", "log P": 3.37},
      {"smiles": "CCC(C)n1ncc(I)c1C(=O)Nc1ccn(-c2ncc(F)cc2F)n1", "note": "(stereo not drawn) [Compound I-1-456]", "log P": 3.28},
      {"smiles": "O=C(Nc1ccn(-c2ncc(F)cc2F)n1)c1cccnc1CC(F)(F)F", "note": "[Compound I-1-457]", "log P": 2.13},
      {"smiles": "O=C(Nc1ccn(-c2ncc(F)cc2F)n1)c1ccccc1OC(F)F", "note": "[Compound I-1-458]", "log P": 2.53},
      {"smiles": "O=C(Nc1ccn(-c2ncc(F)cc2F)n1)c1ccccc1OC(F)F", "note": "[Compound I-1-459]", "log P": 2.50},
      {"smiles": "O=C(Nc1ccn(-c2ncc(F)cc2F)n1)c1cccnc1C(F)F", "note": "[Compound I-1-460]", "log P": 1.77},
      {"smiles": "CSc1ncccc1C(=O)Nc1ccn(-c2ncc(F)cc2F)n1", "note": "[Compound I-1-461]", "log P": 2.14},
      {"smiles": "CS(=O)(=O)c1ccccc1C(=O)Nc1ccn(-c2ncc(F)cc2F)n1", "note": "[Compound I-1-462]", "log P": 1.69},
      {"smiles": "O=C(Nc1ccn(-c2ncc(F)cc2F)n1)c1ccccc1OC(F)(F)F", "note": "[Compound I-1-463]", "log P": 2.77},
      {"smiles": "O=C(Nc1ccn(-c2ncc(F)cc2F)n1)c1cccnc1OC(F)(F)F", "note": "[Compound I-1-464]", "log P": 2.53},
      {"smiles": "O=C(Nc1nn(-c2ncc(F)cc2F)cc1F)c1ccccc1C(F)(F)F", "note": "[Compound I-1-465]", "log P": 2.44},
      {"smiles": "CN(C(=O)c1ccccc1C(F)(F)F)c1ccn(-c2ncc(F)cc2F)n1", "note": "[Compound I-1-467]", "log P": 2.96},
      {"smiles": "CCN(C(=O)c1ccccc1C(F)(F)F)c1ccn(-c2ncc(F)cc2F)n1", "note": "[Compound I-1-468]", "log P": 3.23},
      {"smiles": "C=CCN(C(=O)c1ccccc1C(F)(F)F)c1ccn(-c2ncc(F)cc2F)n1", "note": "[Compound I-1-469]", "log P": 3.38},
      {"smiles": "C#CCN(C(=O)c1ccccc1C(F)(F)F)c1ccn(-c2ncc(F)cc2F)n1", "note": "[Compound I-1-470]", "log P": 3.05},
      {"smiles": "O=C(c1ccccc1C(F)(F)F)N(CC1CC1)c1ccn(-c2ncc(F)cc2F)n1", "note": "[Compound I-1-471]", "log P": 3.62},
      {"smiles": "N#CCN(C(=O)c1ccccc1C(F)(F)F)c1ccn(-c2ncc(F)cc2F)n1", "note": "[Compound I-1-472]", "log P": 2.80},
      {"smiles": "O=C(Nc1nn(-c2ncc(F)cc2F)cc1Cl)c1ccccc1C(F)(F)F", "note": "[Compound I-1-473]", "log P": 2.62},
      {"smiles": "O=C(Nc1nn(-c2ncc(F)cc2F)cc1Br)c1ccccc1C(F)(F)F", "note": "[Compound I-1-474]", "log P": 2.61},
      {"smiles": "O=C(Nc1nn(-c2ncc(F)cc2F)cc1[N+](=O)[O-])c1ccccc1C(F)(F)F", "note": "[Compound I-1-475]", "log P": 2.63},
      {"smiles": "O=C(Nc1ccn(-c2ncc(F)cc2F)n1)c1cccc(Cl)c1Cl", "note": "[Compound I-1-476]", "log P": 2.72},
      {"smiles": "O=C(c1cccc(Cl)c1Cl)N(C(=O)c1cccc(Cl)c1Cl)c1ccn(-c2ncc(F)cc2F)n1", "note": "[Compound I-1-477]", "log P": 4.47},
      {"smiles": "Cc1nc(C)c(C(=O)Nc2ccn(-c3ncc(F)cc3F)n2)s1", "note": "[Compound I-1-478]", "log P": 1.88},
      {"smiles": "O=C(Nc1ccn(-c2ncc(F)cc2F)n1)c1c(Cl)cccc1Cl", "note": "[Compound I-1-479]", "log P": 2.51},
      {"smiles": "Cc1cccc(C)c1C(=O)Nc1ccn(-c2ncc(F)cc2F)n1", "note": "[Compound I-1-480]", "log P": 2.51},
      {"smiles": "CC(=O)c1ccccc1C(=O)Nc1ccn(-c2ncc(F)cc2F)n1", "note": "[Compound I-1-481]", "log P": 2.22},
      {"smiles": "O=C(Nc1ccn(-c2ncc(F)cc2F)n1)c1cccnc1Br", "note": "[Compound I-1-482]", "log P": 1.77},
      {"smiles": "COc1ccc(Cl)c(C(=O)Nc2ccn(-c3ncc(F)cc3F)n2)c1", "note": "[Compound I-1-483]", "log P": 2.51},
      {"smiles": "O=C(Nc1ccn(-c2ncc(F)cc2F)n1)c1c(F)cccc1Cl", "note": "[Compound I-1-484]", "log P": 2.38},
      {"smiles": "O=C(Nc1ccn(-c2ncc(F)cc2F)n1)c1nccnc1Cl", "note": "[Compound I-1-485]", "log P": 1.89},
      {"smiles": "O=C(Nc1ccn(-c2ncc(F)cc2F)n1)c1ccccc1C1CC1", "note": "[Compound I-1-486]", "log P": 2.68},
      {"smiles": "CCc1cccc(F)c1C(=O)Nc1ccn(-c2ncc(F)cc2F)n1", "note": "[Compound I-1-487]", "log P": 2.69},
      {"smiles": "CCc1ccccc1C(=O)Nc1ccn(-c2ncc(F)cc2F)n1", "note": "[Compound I-1-488]", "log P": 2.69},
      {"smiles": "CCc1nccnc1C(=O)Nc1ccn(-c2ncc(F)cc2F)n1", "note": "[Compound I-1-489]", "log P": 2.42},
      {"smiles": "CCc1ncccc1C(=O)Nc1ccn(-c2ncc(F)cc2F)n1", "note": "[Compound I-1-490]", "log P": 1.29},
      {"smiles": "O=C(Nc1ccn(-c2ncc(F)cc2F)n1)c1c(F)cccc1C(F)(F)F", "note": "[Compound I-1-491]", "log P": 2.57},
      {"smiles": "O=C(Nc1ccn(-c2ncc(F)cc2F)n1)c1c(F)cccc1I", "note": "[Compound I-1-492]", "log P": 2.56},
      {"smiles": "O=C(Nc1ccn(-c2ncc(F)cc2F)n1)c1ccccc1F", "note": "[Compound I-1-493]", "log P": 2.31},
      {"smiles": "O=C(Nc1ccn(-c2ncc(F)cc2F)n1)c1ccsc1I", "note": "[Compound I-1-494]", "log P": 2.53},
      {"smiles": "O=C(Nc1ccn(-c2ncc(F)cc2F)n1)c1cccnc1I", "note": "[Compound I-1-495]", "log P": 1.79},
      {"smiles": "COc1ccccc1C(=O)Nc1ccn(-c2ncc(F)cc2F)n1", "note": "[Compound I-1-496]", "log P": 2.55},
      {"smiles": "Cc1nc(C(F)(F)F)c(C(=O)Nc2ccn(-c3ncc(F)cc3F)n2)s1", "note": "[Compound I-1-497]", "log P": 2.35},
      {"smiles": "CC1=C(C(=O)Nc2ccn(-c3ncc(F)cc3F)n2)SCCO1", "note": "[Compound I-1-498]", "log P": 2.17},
      {"smiles": "Cc1ccccc1C(=O)Nc1ccn(-c2ncc(F)cc2F)n1", "note": "[Compound I-1-499]", "log P": 2.36},
      {"smiles": "Cn1nc(C(F)F)c(C(=O)Nc2ccn(-c3ncc(F)cc3F)n2)c1F", "note": "[Compound I-1-500]", "log P": 2.06}
    ]}
  ]
}
